Experimental data as given in patent publication US20240148744A1 (Celgene Corporation, priority 2021, published 2024).

What was measured:
Dirofilaria immitis = assay: Heartworm screen Dirofilaria immitis (stage DiMF/DiL4 not specified in the tables); type: cell-based; conditions: read-out: D. immitis Activity class
[1] = system: Onchocerca gutturosa adult male worms; assay: Onchocerca gutturosa in vitro screening model: adult worm motility score and MTT/formazan viability; type: cell-based; conditions: read-out: O. gutt Activity class
[2] = system: Adult and microfilariae B. pahangi; assay: In vitro parasite motility assay, B. pahangi adult worms and microfilariae; type: cell-based, Brugia pahangi
[3] = system: Adult and microfilariae B. malayi; assay: In vitro parasite motility assay, B. malayi adult worms and microfilariae; type: cell-based; conditions: Brugia malayi, read-out: B. malayi Activity class

SMILES	IC50 (Dirofilaria immitis) [µM]	IC50 [1] [µM]	B. phange Activity class ([2]; activity against adult filaria (level E))	B. phange Activity class ([2]; activity against microfilaria (level D))	IC50 [3] [µM]
O=S(=O)(Nc1cccc2cccnc12)c1ncccc1F [Compound 269, 3-fluoro-N-(quinolin-8-yl)pyridine-2-sulfonamide]	0.5 to 5	< 0.2	E (activity against adult filaria at compound concentrations below 1 μM (activity level E))	–	–
Cn1cc(S(=O)(=O)Nc2cccc3cccnc23)cn1 [Compound 268, 1-methyl-N-(quinolin-8-yl)-1H-pyrazole-4-sulfonamide]	–	–	–	D (activity against microfilaria at compound concentrations below 1 μM (activity level D))	0.5 to 5
Cc1cccnc1S(=O)(=O)Nc1cccc2c(-c3ccccc3)ccnc12 [Compound 30, 3-methyl-N-(4-phenyl-quinolin-8-yl)pyridine-2-sulfonamide]	0.5 to 5	0.5 to 5	–	–	–
Cc1cccnc1S(=O)(=O)Nc1cccc2c(C(F)(F)F)ccnc12 [Compound 13, 3-methyl-N-(4-(trifluoro-methyl)quin-olin-8-yl)pyr-idine-2-sulfonamide]	0.2 to 0.5	< 0.2	–	–	–
Cc1ncc(Cl)cc1S(=O)(=O)Nc1cccc2cccnc12 [Compound 181, 5-chloro-2-methyl-N-(quinolin-8-yl)pyridine-3-sulfonamide]	0.2 to 0.5	0.5 to 5	–	–	–
CCn1ccnc1S(=O)(=O)Nc1ccc(C)c2cccnc12 [Compound 83, 1-ethyl-N-(5-methylquin-olin-8-yl)-1H-imidazole-2-sulfonamide]	0.2 to 0.5	< 0.2	–	–	–
O=S(=O)(Nc1cccc2cccnc12)c1ccc(C(F)F)nc1 [Compound 153, 6-(difluoromethyl)-N-(quinolin-8-yl)pyridine-3-sulfonamide]	0.5 to 5	0.5 to 5	–	–	–
CCn1ccnc1S(=O)(=O)Nc1cc(OC)cc2cccnc12 [Compound 117, 1-ethyl-N-(6-methoxyquin-olin-8-yl)-1H-imidazole-2-sulfonamide]	0.2 to 0.5	0.5 to 5	–	–	–
N#Cc1cccc(S(=O)(=O)Nc2ccc(N3CCOCC3)c3cccnc23)c1 [Compound 80, 3-cyano-N-(5-morpho-linoquinolin-8-yl)ben-zenesulfon-amide]	0.5 to 5	< 0.2	–	–	–
O=S(=O)(Nc1c(Cl)ccc2cccnc12)c1ncccc1F [Compound 98, N-(7-chloro-quinolin-8-yl)-3-fluoro-pyridine-2-sulfonamide]	0.5 to 5	< 0.2	–	–	–
CN(C)C(=O)c1cccnc1S(=O)(=O)Nc1cccc2cccnc12 [Compound 207, N,N-dimethyl-2-(N-quinolin-8-ylsulfamoyl) nicotinamide]	0.5 to 5	0.5 to 5	–	–	–
CCn1ccnc1S(=O)(=O)Nc1ccc(Cl)c2cccnc12 [Compound 110, N-(5-chloro-quinolin-8-yl)-1-ethyl-1H-imidazole-2-sulfonamide]	0.2 to 0.5	0.2 to 0.5	–	–	–
O=S(=O)(Nc1cccc2cccnc12)c1ccnc(C2CC2)c1 [Compound 152]	0.5 to 5	< 0.2	–	–	–
N#Cc1cccc(S(=O)(=O)Nc2ccc(F)c3cccnc23)c1 [Compound 72, 3-cyano-N-(5-fluoroquin-olin-8-yl)ben-zenesulfon-amide]	0.5 to 5	< 0.2	–	–	–
CC(C)n1nccc1S(=O)(=O)Nc1cccc2cccnc12 [Compound 206, 1-isopropyl-N-(quinolin-8-yl)-1H-pyrazole-5-sulfonamide]	0.5 to 5	0.2 to 0.5	–	–	–
O=S(=O)(Nc1cccc2cccnc12)c1cn[nH]c1 [Compound 267, N-(quinolin-8-yl)-1H-pyrazol-4-sulfonamide]	–	–	–	–	0.5 to 5
CN(C)c1cccnc1S(=O)(=O)Nc1cccc2c1NCCC2 [Compound 45, 3-(dimethyl-amino)-N-(1,2,3,4-tetra-hydroquin-olin-8-yl)-pyridine-2-sulfonamide]	0.5 to 5	0.5 to 5	–	–	–
O=S(=O)(Nc1cccc2cccnc12)c1ccccn1 [Compound 280, N-(quinolin-8-yl)pyridine-2-sulfonamide]	0.2 to 0.5	0.5 to 5	–	–	–
N#Cc1ccc(-c2cccc(S(=O)(=O)Nc3cccc4cccnc34)n2)cc1 [Compound 178, 6-(4-cyanophenyl)-N-(quinolin-8-yl)pyridine-2-sulfonamide]	0.5 to 5	< 0.2	–	–	–
Cc1cccnc1S(=O)(=O)Nc1c(OCC2CC2)ccc2cccnc12 [Compound 16, N-(7-(cyclo-propylmeth-oxy)quinolin-8-yl)-3-meth-ylpyridine-2-sulfonamide]	< 0.2	0.5 to 5	–	–	–
Cc1cccnc1S(=O)(=O)Nc1c(C2CC2)ccc2cccnc12 [Compound 17, N-(7-cyclo-propylquin-olin-8-yl)-3-methylpyr-idine-2-sulfonamide]	0.2 to 0.5	0.2 to 0.5	–	–	–
Cc1ccc(S(=O)(=O)Nc2cccc3cccnc23)cn1 [Compound 157, 6-methyl-N-(quinolin-8-yl)pyridine-3-sulfonamide]	0.5 to 5	0.5 to 5	–	–	–
CCn1ccnc1S(=O)(=O)Nc1c(OC)ccc2cccnc12 [Compound 84, 1-ethyl-N-(7-methoxyquin-olin-8-yl)-1H-imidazole-2-sulfonamide]	0.2 to 0.5	< 0.2	–	–	–
Cc1ccc(S(=O)(=O)Nc2c(C)ccc3cccnc23)nc1 [Compound 112, 5-methyl-N-(7-methyl-quinolin-8-yl)-pyridine-2-sulfonamide]	0.5 to 5	0.2 to 0.5	–	–	–
CCn1ccnc1S(=O)(=O)Nc1cccc2cc(OC)cnc12 [Compound 86, 1-ethyl-N-(3-methoxyquin-olin-8-yl)-1H-imidazole-2-sulfonamide]	0.2 to 0.5	< 0.2	–	–	–
O=S(=O)(Nc1cccc2cccnc12)c1ccc(C(F)(F)F)nc1 [Compound 190, N-(quinolin-8-yl)-6-(trifluoromethyl) pyridine-3-sulfonamide]	< 0.2	< 0.2	–	–	–
Cc1ccc(S(=O)(=O)Nc2cccc3cccnc23)c(Cl)n1 [Compound 188, 2-chloro-6-methyl-N-(quinolin-8-yl)pyridine-3-sulfonamide]	0.5 to 5	< 0.2	–	–	–
CC(C)c1cccnc1S(=O)(=O)Nc1cccc2cccnc12 [Compound 211, 3-isopropyl-N-(quinolin-8-yl)pyridine-2-sulfonamide]	0.5 to 5	< 0.2	–	–	–
